According to patent US20230019280A1, “SUBSTITUTED ISOINDOLONYL 2,2'-BIP[…], ANALOGUES THEREOF, AND METHODS USING SAME” (priority 2019, published 2023):
Like-named read-outs stand apart in the source and are kept apart here.

Test system: HBsAg
Assay: HBsAg assay (inhibition of HBsAg in HepG2.2.15 cells)
Type: cell-based, hepatitis B virus
Settings: supernatant HBsAg by CLIA at day 6 after exposure of compounds
Experimental: Inhibition of HBsAg was determined in HepG2.2.15 cells. Cells were maintained in culture medium containing 10% fetal calf serum, […], Glutamine, penicillin/streptomycin. Cells were seeded in 96-well collagen-coated plate at a density of 30,000 cells/well. Serially diluted compounds were added to cells next day at the final DMSO concentration of 0.5%. Cells were incubated with compounds for 2-3 days, after which medium was removed. Fresh medium containing compounds was added to cells for additional 3-4 days. At day 6 after exposure of compounds, supernatant was collected, the HBsAg immunoassay (microplate-based chemiluminescence immunoassay kits, CLIA, Autobio Diagnosics Co., Zhengzhou, China, Catalog #CL0310-2) was used to determine the level of HBsAg according to manufactory instruction. Dose-response curves were generated and the EC50 value (effective concentrations that achieved 50% inhibitory effect) were determined using XLfit software. In addition, cells were seeded at a density of 5,000 cells/well for determination of cell viability in the presence and absence of compounds by using CellTiter-Glo reagent (Promega).

[1] = read-out: sAg EC50, HepG2.2.15 cells
[2] = Hepatitis B virus, HepG2.2.15, 144 h, read-out: sAg EC50, HepG2.2.15 cells

Row | Structure (SMILES) | EC50 [1] | EC50 [2]
1 | CCC1c2cc(F)c(OC)cc2C(=O)N1c1ccnc(-c2ncccn2)n1 (single isomer, unassigned) [Example 50, 3-Ethyl-5-fluoro-6-methoxy-2-(2-pyrimidin-2-ylpyrimidin-4-yl)isoindolin-1-one] | 480 nM | –
2 | CCC1c2cc(F)c(OC)cc2C(=O)N1c1ccnc(-c2ncccn2)n1 (single isomer, unassigned) [Example 49, 3-Ethyl-5-fluoro-6-methoxy-2-(2-pyrimidin-2-ylpyrimidin-4-yl)isoindolin-1-one] | 10 nM | –
3 | COc1cc2c(cc1OC)C(Cc1ccccc1)N(c1ccnc(-c3ncccn3)n1)C2=O (single isomer, unassigned) [Example 14, 2-([2,2′-Bipyrimidin]-4-yl)-3-benzyl-5,6-dimethoxyisoindolin-1-one] | 100 nM | –
4 | COc1cc2c(cc1OC)C(=O)N(c1ccnc(-c3ncccn3)n1)C2 [Example 62, 2-([2,2′-Bipyrimidin]-4-yl)-5,6-dimethoxyisoindolin-1-one] | – | 130 nM
5 | O=C1c2cc(F)c(F)cc2CN1c1ccnc(-c2ncccn2)n1 [Example 61, 2-([2,2′-Bipyrimidin]-4-yl)-5,6-difluoroisoindolin-1-one] | – | 450 nM
6 | COc1cc2c(cc1OC)C(CC(C)C)N(c1ccnc(-c3ncccn3)n1)C2=O (single isomer, unassigned) [Example 40, 2-([2,2′-bipyrimidin]-4-yl)-3-isobutyl-5,6-dimethoxyisoindolin-1-one] | 10 nM | –
7 | CCC1c2cc(OC)c(OC)cc2C(=O)N1c1cnc(-c2ncccn2)nc1 (stereo not shown) [Example 30, 3-Ethyl-5,6-dimethoxy-2-(2-pyrimidin-2-ylpyrimidin-5-yl)isoindolin-1-one] | – | 48000 nM
8 | CCC1c2cc(OC)c(F)cc2C(=O)N1c1ccnc(-c2ncccn2)n1 (single isomer, unassigned) [Example 51, 2-([2,2′-Bipyrimidin]-4-yl)-3-ethyl-6-fluoro-5-methoxyisoindolin-1-one] | 130 nM | –
9 | O=C1c2cc(F)cc(F)c2CCN1c1ccnc(-c2ncccn2)n1 [Example 64, 2-([2,2′-Bipyrimidin]-4-yl)-5,7-difluoro-3,4-dihydroisoquinolin-1(2H)-one] | – | 5000 nM
10 | CCC1c2c(F)cc(Cl)cc2C(=O)N1c1ccnc(-c2ncccn2)n1 (single isomer, unassigned) [Example 8, 2-([2,2′-Bipyrimidin]-4-yl)-6-chloro-3-ethyl-4-fluoroisoindolin-1-one] | 10 nM | –
11 | CCC1c2cc(OC)c(OC)cc2C(=O)N1c1ccnc(-c2ncccn2)c1 (single isomer, unassigned) [Example 33, 3-Ethyl-5,6-dimethoxy-2-(2-(pyrimidin-2-yl)pyridin-4-yl)isoindolin-1-one] | 7 nM | –
12 | COc1cc2c(cc1OC)C(c1sccc1C)N(c1ccnc(-c3ncccn3)n1)C2=O (stereo not shown) [Example 27, 2-([2,2′-Bipyrimidin]-4-yl)-5,6-dimethoxy-3-(3-methylthiophen-2-yl)isoindo-lin-1-one] | – | 1 nM
13 | COc1cc2c(cc1OC)C(Cc1ccccc1)N(c1ccnc(-c3ncccn3)n1)C2=O (single isomer, unassigned) [Example 15, 2-([2,2′-Bipyrimidin]-4-yl)-3-benzyl-5,6-dimethoxyisoindolin-1-one] | 40000 nM | –
14 | CCC1c2cc(OC)c(OC)cc2C(=O)N1c1ccnc(-c2ncccn2)n1 (stereo not shown) [Example 1, 2-([2,2′-Bipyrimidin]-4-yl)-3-ethyl-5,6-dimethoxyisoindolin-1-one] | – | 27 nM
15 | CCC1c2cc(Cl)cc(F)c2C(=O)N1c1ccnc(-c2ncccn2)n1 (single isomer, unassigned) [Example 21, 2-([2,2′-Bipyrimidin]-4-yl)-5-chloro-3-ethyl-7-fluoroisoindolin-1-one] | 25000 nM | –
16 | COCCC1c2cc(F)c(OC)cc2C(=O)N1c1ccnc(-c2ncccn2)n1 (single isomer, unassigned) [Example 54, 2-([2,2′-Bipyrimidin]-4-yl)-5-fluoro-6-methoxy-3-(2-methoxyethyl)isoindolin-1-one] | 430 nM | –
17 | CCC1c2cc(F)c(OC)cc2C(=O)N1c1ccnc(-c2ncccn2)n1 (stereo not shown) [Example 48, 2-([2,2′-Bipyrimidin]-4-yl)-3-ethyl-5-fluoro-6-methoxyisoindolin-1-one] | – | 20 nM
18 | COc1cc2c(cc1OC)C(CC(C)C)N(c1ccnc(-c3ncccn3)n1)C2=O (single isomer, unassigned) [Example 41, 2-([2,2′-Bipyrimidin]-4-yl)-3-isobutyl-5,6-dimethoxyisoindolin-1-one] | 1000 nM | –
19 | COc1ccc(C2c3cc(OC)c(OC)cc3C(=O)N2c2ccnc(-c3ncccn3)n2)cc1 (single isomer, unassigned) [Example 11, 2-([2,2′-Bipyrimidin]-4-yl)-5,6-dimethoxy-3-(4-methoxyphenyl)isoindolin-1-one] | 4000 nM | –

Row | Structure (SMILES) | EC50 [1] | EC50 [2]
20 | COc1cc2c(cc1OC)C(c1ccc3c(c1)OCCO3)N(c1ccnc(-c3ncccn3)n1)C2=O (stereo not shown) [Example 26, 2-([2,2′-Bipyrimidin]-4-yl)-3-(2,3-dihydrobenzo[b][1,4]dioxin-6-yl)-5,6-dimethoxyisoindolin-1-one] | – | 18 nM
21 | CCC1c2cc(Cl)cc(F)c2C(=O)N1c1ccnc(-c2ncccn2)n1 (single isomer, unassigned) [Example 20, 2-([2,2′-Bipyrimidin]-4-yl)-5-chloro-3-ethyl-7-fluoroisoindolin-1-one] | 45 nM | –
22 | COc1cc2c(cc1OC)C(C1CCC1)N(c1ccnc(-c3ncccn3)n1)C2=O (stereo not shown) [Example 28, 2-([2,2′-Bipyrimidin]-4-yl)-3-cyclobutyl-5,6-dimethoxyisoindolin-1-one] | – | 2 nM
23 | COc1cc2c(cc1OC)C(c1ccccc1)N(c1ccnc(-c3ncccn3)n1)C2=O (stereo not shown) [Example 42, 2-([2,2′-Bipyrimidin]-4-yl)-5,6-dimethoxy-3-phenylisoindolin-1-one] | – | 1 nM
24 | COc1ccc(C2c3cc(OC)c(OC)cc3C(=O)N2c2ccnc(-c3ncccn3)n2)cc1 (single isomer, unassigned) [Example 10, 2-([2,2′-Bipyrimidin]-4-yl)-5,6-dimethoxy-3-(4-methoxyphenyl)isoindolin-1-one] | 13 nM | –
25 | COCCC1c2cc(F)c(OC)cc2C(=O)N1c1ccnc(-c2ncccn2)n1 (single isomer, unassigned) [Example 53, 2-([2,2′-Bipyrimidin]-4-yl)-5-fluoro-6-methoxy-3-(2-methoxyethyl)isoindolin-1-one] | 38 nM | –
26 | COc1cc2c(cc1OC)C(c1ccccc1)N(c1nc(-c3ncccn3)ncc1F)C2=O (single isomer, unassigned) [Example 70, 2-(5-Fluoro-[2,2′-bipyrimidin]-4-yl)-5,6-dimethoxy-3-phenylisoindolin-1-one] | 1 nM | –
27 | COc1cc2c(cc1OC)C(c1ccccn1)N(c1ccnc(-c3ncccn3)n1)C2=O (single isomer, unassigned) [Example 23, 2-([2,2′-Bipyrimidin]-4-yl)-5,6-dimethoxy-3-(pyridin-2-yl)isoindolin-1-one] | 500 nM | –
28 | COc1cc2c(cc1F)C1(CC1)N(c1ccnc(-c3ncccn3)n1)C2=O [Example 47, 2′-([2,2′-Bipyrimidin]-4-yl)-6′-fluoro-5′-methoxyspiro[cyclopropane-1,1′-isoindolin]-3′-one] | – | 120 nM
29 | CCC1c2cc(OC)c(OC)cc2C(=O)N1c1nc(-c2ncccn2)ncc1F (single isomer, unassigned) [Example 66, 3-Ethyl-2-(5-fluoro-[2,2′-bipyrimidin]-4-yl)-5,6-dimethoxyisoindolin-1-one] | 34 nM | –
30 | CCC1c2cc(OC)c(OC)cc2C(=O)N1c1cc(C)nc(-c2ncccn2)n1 (stereo not shown) [Example 36, 3-Ethyl-5,6-dimethoxy-2-(6-methyl-[2,2′-bipyrimidin]-4-yl)isoindolin-1-one] | – | 10000 nM
31 | CCCC1c2cc(F)c(OC)cc2C(=O)N1c1nc(-c2ncccn2)ncc1F (single isomer, unassigned) [Example 58, 5-Fluoro-2-(5-fluoro-[2,2′-bipyrimidin]-4-yl)-6-methoxy-3-propylisoindolin-1-one] | – | 20 nM
32 | CCC1c2cc(OC)c(OC)cc2C(=O)N1c1cncc(-c2ncccn2)n1 (stereo not shown) [Example 35, 3-Ethyl-5,6-dimethoxy-2-(6-(pyrimidin-2-yl)pyrazin-2-yl)isoindolin-1-one] | – | 1000 nM
33 | COc1cc2c(cc1OC)C(=O)N(c1ccnc(-c3ncccn3)n1)CC2 [Example 63, 2-([2,2′-Bipyrimidin]-4-yl)-6,7-dimethoxy-3,4-dihydroisoquinolin-1(2H)-one] | – | 520 nM
34 | O=C1c2c(F)cc(F)cc2CN1c1ccnc(-c2ncccn2)n1 [Example 60, 2-([2,2′-Bipyrimidin]-4-yl)-5,7-difluoroisoindolin-1-one] | – | 850 nM
35 | COc1cc2c(cc1OC)C(c1ccc(C)nc1)N(c1ccnc(-c3ncccn3)n1)C2=O (single isomer, unassigned) [Example 19, 2-([2,2′-Bipyrimidin]-4-yl)-5,6-dimethoxy-3-(6-methylpyridin-3-yl)isoindolin-1-one] | 390 nM | –
36 | COc1cc2c(cc1OC)C(CC(C)C)N(c1ccnc(-c3ncccn3)n1)C2=O (stereo not shown) [Example 39, 2-([2,2′-Bipyrimidin]-4-yl)-3-isobutyl-5,6-dimethoxyisoindolin-1-one] | – | 2 nM
37 | CCC1c2cc(OC)c(Cl)cc2C(=O)N1c1ccnc(-c2ncccn2)n1 (single isomer, unassigned) [Example 7, 2-([2,2′-Bipyrimidin]-4-yl)-6-chloro-3-ethyl-5-methoxyisoindolin-1-one] | 8000 nM | –
